According to the supplement of paper PMC10307832:

Tests used:
Test in all cases: relative viability (nuclei count vs DMSO), 5 days (fraction); higher = more cells survive
[1] = compound: C1=CC2=C(C=C(C(=C2N=C1)O)N=NC3=CC4=C(C=C3)C=C(C=C4)S(=O)(=O)O)S(=O)(=O)O + CC(=O)c1c(C)c2cnc(Nc3ccc(N4CCNCC4)cn3)nc2n(C2CCCC2)c1=O [Palbociclib] (partner 0.5 µM)
In short: (§1)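 Each reported value is a median over duplicate plates. It expresses relative viability: treated-well nuclei count divided by vehicle-well nuclei count. Lung cancer cell lines in 1536-well plates were dosed by pin tool a day after seeding, alone with one drug or with a fixed anchor-drug dose plus five library-drug doses (not always all listed) in √10 steps, and nuclei were counted after 5 days.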

AT-7519 + Olaparib = compound: O=C(NC1CCNCC1)c1n[nH]cc1NC(=O)c1c(Cl)cccc1Cl [AT-7519] + O=C(c1cc(Cc2n[nH]c(=O)c3ccccc23)ccc1F)N1CCN(C(=O)C2CC2)CC1 [Olaparib] (partner 8 µM)
In short: as §1

AT-7519 + Palbociclib = compound: O=C(NC1CCNCC1)c1n[nH]cc1NC(=O)c1c(Cl)cccc1Cl [AT-7519] + CC(=O)c1c(C)c2cnc(Nc3ccc(N4CCNCC4)cn3)nc2n(C2CCCC2)c1=O [Palbociclib] (partner 0.5 µM)
In short: as §1

AT-7519 + Pictilisib = compound: O=C(NC1CCNCC1)c1n[nH]cc1NC(=O)c1c(Cl)cccc1Cl [AT-7519] + CS(=O)(=O)N1CCN(Cc2cc3nc(-c4cccc5[nH]ncc45)nc(N4CCOCC4)c3s2)CC1 [Pictilisib] (partner 1 µM)
In short: as §1

Row | Cell Line | relative viability ([1]; first compound 0.08 µM) | relative viability ([1]; first compound 0.253 µM) | relative viability ([1]; first compound 0.8 µM) | relative viability ([1]; first compound 2.53 µM) | relative viability ([1]; first compound 8 µM) | relative viability (AT-7519 + Olaparib; first compound 0.01 µM) | relative viability (AT-7519 + Olaparib; first compound 0.03162 µM) | relative viability (AT-7519 + Olaparib; first compound 0.3162 µM) | relative viability (AT-7519 + Olaparib; first compound 1 µM) | relative viability (AT-7519 + Palbociclib; first compound 0.01 µM) | relative viability (AT-7519 + Palbociclib; first compound 0.03162 µM) | relative viability (AT-7519 + Palbociclib; first compound 0.3162 µM) | relative viability (AT-7519 + Palbociclib; first compound 1 µM) | relative viability (AT-7519 + Pictilisib; first compound 0.01 µM) | relative viability (AT-7519 + Pictilisib; first compound 0.03162 µM) | relative viability (AT-7519 + Pictilisib; first compound 0.3162 µM) | relative viability (AT-7519 + Pictilisib; first compound 1 µM)
1 | 201T | 0.385 | 0.366 | 0.366 | 0.366 | 0.35 | 0.895 | 0.846 | 0.917 | 0.666 | 0.339 | 0.34 | 0.32 | 0.363 | 0.684 | 0.712 | 0.7 | 0.77
2 | A549 | – | – | – | – | – | 0.312 | 0.309 | 0.315 | 0.368 | – | – | – | – | 0.463 | 0.466 | 0.421 | 0.0948
3 | A-427 | 0.525 | 0.547 | 0.512 | 0.541 | 0.482 | 0.806 | 0.745 | 0.713 | 0.382 | 0.551 | 0.491 | 0.467 | 0.327 | 0.711 | 0.713 | 0.574 | 0.253
4 | ABC-1 | 0.756 | 0.647 | 0.659 | 0.91 | 0.761 | 1.02 | 0.646 | 0.608 | 0.454 | 0.778 | 0.702 | 0.549 | 0.442 | 0.837 | 0.688 | 0.527 | 0.202
5 | BEN | 0.499 | 0.426 | 0.489 | 0.458 | 0.448 | 1.03 | 1.1 | 1.03 | 0.809 | 0.5 | 0.515 | 0.455 | 0.461 | 0.532 | 0.512 | 0.697 | 0.468
6 | CAL-12T | 0.471 | 0.352 | 0.415 | 0.481 | 0.351 | 0.736 | 0.736 | 0.539 | 0.163 | 0.396 | 0.471 | 0.172 | 0.151 | – | 0.514 | 0.214 | 0.193
7 | COR-L23 | 0.326 | 0.346 | 0.274 | 0.299 | 0.39 | 0.362 | 0.361 | 0.264 | 0.102 | 0.306 | 0.28 | 0.265 | 0.157 | 0.728 | 0.598 | 0.291 | 0.0899
8 | COR-L 105 | 0.391 | 0.433 | 0.449 | 0.426 | 0.384 | 0.71 | 0.714 | 0.726 | 0.564 | 0.382 | 0.416 | 0.371 | 0.354 | 0.372 | 0.423 | 0.254 | 0.246
9 | Calu-6 | – | – | – | – | – | 0.622 | 0.641 | 0.688 | 0.262 | – | – | – | – | 0.863 | 0.919 | 0.689 | 0.131
10 | ChaGo-K-1 | 0.974 | 0.948 | 0.931 | 0.903 | 0.853 | 0.379 | 0.403 | 0.431 | 0.403 | 0.952 | 0.938 | 0.922 | 0.869 | 0.589 | 1.16 | 0.536 | 0.547
11 | EBC-1 | – | – | – | – | – | 0.88 | 0.773 | 0.664 | 0.546 | – | – | – | – | 0.393 | 0.31 | 0.288 | 0.139
12 | EKVX | 0.542 | 0.359 | 0.35 | 0.48 | 0.344 | 0.816 | 0.758 | 0.809 | 0.995 | 0.498 | 0.369 | 0.299 | 0.375 | 0.449 | 0.385 | 0.393 | 0.346
13 | EMC-BAC-2 | 0.528 | 0.541 | 0.509 | 0.519 | 0.537 | 0.508 | 0.48 | 0.506 | 0.56 | 0.504 | 0.506 | 0.468 | 0.513 | 0.56 | 0.524 | 0.506 | 0.538
14 | EPLC-272H | 0.369 | 0.31 | 0.325 | 0.371 | 0.316 | 0.604 | 0.591 | 0.606 | 0.0569 | 0.346 | 0.324 | 0.302 | 0.307 | 0.384 | 0.311 | 0.249 | 0.17
15 | IA-LM | – | – | – | – | – | 0.866 | 0.892 | 0.834 | 0.631 | – | – | – | – | 0.31 | 0.328 | 0.191 | 0.0278
16 | NCI-H522 | 0.957 | 0.981 | 0.934 | 0.849 | 0.923 | 0.75 | 0.595 | 0.664 | 0.498 | 0.969 | 0.967 | 0.995 | 0.788 | – | – | – | –
17 | NCI-H596 | – | – | – | – | – | 0.64 | 0.733 | 0.691 | 0.644 | – | – | – | – | 0.389 | 0.433 | 0.414 | 0.347
18 | NCI-H1299 | – | – | – | – | – | 0.97 | 1 | 0.935 | 1.09 | – | – | – | – | 0.865 | 0.738 | 0.507 | 0.127
19 | NCI-H1563 | – | – | – | – | – | – | – | – | – | – | – | – | – | 0.591 | 0.612 | 0.764 | 0.511
20 | NCI-H1648 | – | 0.29 | – | – | 0.301 | 0.852 | – | 0.696 | 0.49 | 0.32 | – | 0.242 | 0.245 | – | – | – | –
21 | NCI-H1703 | – | – | – | – | – | 0.454 | 0.435 | 0.388 | 0.175 | – | – | – | – | 0.322 | 0.234 | 0.241 | 0.129
22 | NCI-H2342 | 0.576 | 0.538 | 0.532 | 0.6 | 0.542 | 0.391 | 0.427 | 0.454 | 0.443 | 0.53 | 0.491 | 0.497 | 0.533 | – | – | – | –
23 | SW 900 | 0.53 | 0.58 | 0.477 | 0.648 | 0.579 | 1.06 | 0.8 | 0.622 | 0.371 | 0.552 | 0.595 | 0.512 | 0.463 | – | – | – | –
